In ChEMBL document CHEMBL3286266, “Development of novel benzomorpholine class of diacylglycerol acyltransferase I inhibitors” (ACS Med Chem Lett, 2014):

Experiments:
[1] = biological target: T1, Diacylglycerol O-acyltransferase 1 (Mus musculus, UniProt Q9Z2A7); test: Inhibition of mouse DGAT1 expressed in Sf9 insect cells using 1,2-dioleoyl-sn-glycerol and [14C]-palmitoyl-CoA substrate by scintillation counting analysis
T1 sequence (Q9Z2A7 whole entry): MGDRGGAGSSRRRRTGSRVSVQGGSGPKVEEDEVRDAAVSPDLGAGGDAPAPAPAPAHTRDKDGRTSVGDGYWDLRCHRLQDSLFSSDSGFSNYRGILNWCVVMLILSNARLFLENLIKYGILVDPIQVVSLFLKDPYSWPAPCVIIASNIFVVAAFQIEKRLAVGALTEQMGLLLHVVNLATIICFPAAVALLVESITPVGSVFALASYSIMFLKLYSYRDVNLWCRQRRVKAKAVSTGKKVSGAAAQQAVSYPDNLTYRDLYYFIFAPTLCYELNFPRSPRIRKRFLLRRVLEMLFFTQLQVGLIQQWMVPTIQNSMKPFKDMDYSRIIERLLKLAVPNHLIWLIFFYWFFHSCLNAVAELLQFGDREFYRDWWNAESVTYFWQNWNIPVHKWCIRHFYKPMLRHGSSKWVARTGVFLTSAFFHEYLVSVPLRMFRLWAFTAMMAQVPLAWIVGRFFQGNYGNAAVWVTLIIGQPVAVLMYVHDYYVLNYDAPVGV

[2] = biological target: T2, Diacylglycerol O-acyltransferase 1 (Homo sapiens, UniProt O75907); test: Inhibition of human DGAT1 expressed in Sf9 insect cells using 1,2-dioleoyl-sn-glycerol and [14C]-palmitoyl-CoA substrate by scintillation counting analysis
T2 sequence (O75907 whole entry): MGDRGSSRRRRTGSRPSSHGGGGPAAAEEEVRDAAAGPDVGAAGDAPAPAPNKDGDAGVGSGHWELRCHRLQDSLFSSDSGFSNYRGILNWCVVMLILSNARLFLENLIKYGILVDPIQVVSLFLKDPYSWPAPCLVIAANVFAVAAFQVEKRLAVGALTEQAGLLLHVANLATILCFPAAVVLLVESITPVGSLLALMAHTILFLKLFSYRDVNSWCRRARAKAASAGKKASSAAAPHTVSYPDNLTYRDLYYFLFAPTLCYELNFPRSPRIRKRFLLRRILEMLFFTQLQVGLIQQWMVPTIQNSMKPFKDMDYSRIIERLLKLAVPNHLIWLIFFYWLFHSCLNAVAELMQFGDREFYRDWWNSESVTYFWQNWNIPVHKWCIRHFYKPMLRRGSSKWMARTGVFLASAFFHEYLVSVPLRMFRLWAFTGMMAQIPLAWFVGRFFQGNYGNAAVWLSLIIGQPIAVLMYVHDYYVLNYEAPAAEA

IC50 [1] [nM]	IC50 [2] [nM]	Compound
160		O=C(O)C[C@H]1CC[C@H](c2ccc(-c3ccc4c(c3)OCCN4C(=O)NC3CCCCC3)cc2)CC1
> 10000	> 10000	O=C(O)C[C@H]1CC[C@H](c2ccc(-c3ccc4c(c3)OCCN4S(=O)(=O)Cc3ccccc3)cc2)CC1
34		CCOc1ccc(NC(=O)N2CCOc3cc(-c4ccc([C@H]5CC[C@H](CC(=O)O)CC5)cc4)ccc32)cc1
200		CC(C(=O)O)[C@H]1CC[C@H](c2ccc(-c3ccc4c(c3)OCCN4C(=O)Nc3ccccc3)cc2)CC1 (some centres not stated)
7300		CS(=O)(=O)NC(=O)C[C@H]1CC[C@H](c2ccc(-c3ccc4c(c3)OCCN4C(=O)Nc3ccccc3)cc2)CC1
360	530	C[C@H]1CN(C(=O)Nc2ccccc2)c2ccc(-c3ccc([C@H]4CC[C@H](CC(=O)O)CC4)cc3)cc2O1
830		O=C(O)[C@@H]1CCC[C@H]1C(=O)c1ccc(-c2ccc3c(c2)OCCN3C(=O)Nc2ccccc2)cc1
920		O=C(C[C@H]1CC[C@H](c2ccc(-c3ccc4c(c3)OCCN4C(=O)Nc3ccccc3)cc2)CC1)NO
5200		Nc1ccccc1NC(=O)N1CCOc2cc(-c3ccc([C@H]4CC[C@H](CC(=O)O)CC4)cc3)ccc21
> 10000	> 10000	CC1Oc2cc(-c3ccc([C@H]4CC[C@H](CC(=O)O)CC4)cc3)ccc2N(C(=O)Nc2ccccc2)C1=O (some centres not stated)
310		CCC1CN(C(=O)Nc2ccccc2)c2ccc(-c3cnc(OCC(C)(C)C(=O)O)nc3)cc2O1 (configuration not stated)
> 10000	> 10000	O=C(O)C[C@H]1CC[C@H](c2ccc(-c3cnc4c(c3)OCCN4C(=O)Nc3ccccc3)cc2)CC1
110		O=C(O)C[C@H]1CC[C@H](c2ccc(-c3ccc4c(c3)OCCN4C(=O)Cc3ccccc3)cc2)CC1
550		O=C(O)C[C@H]1CC[C@H](c2ccc(-c3ccc4c(n3)OCCN4C(=O)Nc3ccccc3)cc2)CC1
69		CC(C)c1ccccc1NC(=O)N1CCOc2cc(-c3ccc([C@H]4CC[C@H](CC(=O)O)CC4)cc3)ccc21
90		CCC1CN(C(=O)Nc2ccccc2)c2ccc(-c3ccc(OCC4(C(=O)O)CC4)nc3)cc2O1 (configuration not stated)
> 10000	> 10000	O=C(O)C[C@H]1CC[C@H](c2ccc(-c3ccc4c(c3)OCCN4c3nc4ccccc4o3)cc2)CC1
16		O=C(O)C[C@H]1CC[C@H](c2ccc(-c3ccc4c(c3)OCCN4C(=O)Nc3ccccc3C(F)(F)F)cc2)CC1
210		CCC1CN(C(=O)Nc2ccccc2)c2ccc(-c3ccc(OC[C@H]4C[C@@H]4C(=O)O)nc3)cc2O1 (relative stereo)
630		CC1COc2cc(-c3ccc([C@H]4CC[C@H](CC(=O)O)CC4)cc3)ccc2N1C(=O)Nc1ccccc1 (some centres not stated)
37		CCc1ccccc1NC(=O)N1CCOc2cc(-c3ccc([C@H]4CC[C@H](CC(=O)O)CC4)cc3)ccc21
> 10000	> 10000	O=C(O)C[C@H]1CC[C@H](c2ccc(-c3ccc4c(c3)N(C(=O)Nc3ccccc3)CCO4)cc2)CC1
> 10000	> 10000	O=C(O)C[C@H]1CC[C@H](c2ccc(-c3cccc4c3OCCN4C(=O)Nc3ccccc3)cc2)CC1
160		CCCC1CN(C(=O)Nc2ccccc2)c2ccc(-c3ccc([C@H]4CC[C@H](CC(=O)O)CC4)cc3)cc2O1 (some centres not stated)
110		O=C(O)C[C@H]1CC[C@H](c2ccc(-c3ccc4c(c3)OCCN4C(=O)NCc3ccccc3)cc2)CC1
300		CC(C)C1CN(C(=O)Nc2ccccc2)c2ccc(-c3ccc([C@H]4CC[C@H](CC(=O)O)CC4)cc3)cc2O1 (some centres not stated)
> 10000	> 10000	O=C(O)C[C@H]1CC[C@H](c2ccc(-c3ccc4c(c3)OCCN4C(=O)Nc3ccccc3C(=O)O)cc2)CC1
110		CCC1CN(C(=O)Nc2ccccc2)c2ccc(-c3ccc(OCC4(C(=O)O)CCC4)nc3)cc2O1 (configuration not stated)
1200		O=C(O)C[C@H]1CC[C@H](c2ccc(-c3ccc4c(c3)OCCN4C(=O)Nc3cc(C(F)(F)F)ccc3F)cc2)CC1
